Active and inactive are the calls of the source. The rule behind the calls is not given here.
Key:
[1] = system: Mus musculus; assay: Antisepsis against LPS-induced sepsis mouse multiorgan damage model model assessed as reduction in multiorgan damage at 25 to 50 mg/kg, IG measured after 24 hrs by H and E staining assay; assay type: functional, organism-based; conditions: dose 25-50 mg/kg
[2] = system: RAW264.7; assay: Immunosuppressive activity in mouse RAW264.7 cells assessed as reduction in expression of P70S6K phosphorylation at 10 to 40 uM by Western blot analysis; assay type: functional, cell-based; conditions: dose 10-40 µM
[3] = system: T-cell; assay: Immunosuppressive activity in C57BL/6 female mouse T-cells isolated from spleen assessed as inhibition of LPS-induced IFN-gamma secretion at 20 uM treated for 48 hrs by ELISA based assay relative to control; assay type: functional; conditions: C57BL/6, T-cell
[4] = system: RAW264.7; assay: Inhibition of cytokine secretion in mouse RAW264.7 cells assessed as suppression of LPS-induced IL-6 secretion at 40 uM measured after 48 hrs by ELISA based assay; assay type: functional, cell-based
[5] = species on record: Mus musculus; assay: Immunosuppressive activity in C57BL/6 female mouse T Cells isolated from spleen assessed as inhibition of anti-CD3/CD28-induced IFN-gamma secretion measured after 48 hrs by ELISA based assay relative to control; assay type: functional; conditions: T-cell
[6] = species on record: Mus musculus; assay: Antisepsis against LPS-induced sepsis mouse model assessed as increase in survival rate of mouse treated IG measured upto 24 hrs; assay type: functional, organism-based
[7] = system: T-cell; assay: Inhibition of proliferation of C57BL/6 female mouse T-cells isolated from spleen at 20 uM relative to control; assay type: functional; conditions: C57BL/6, T-cell
[8] = system: Mus musculus; assay: Reduction in IL-6 level in LPS-induced sepsis mouse model peripheral blood at 50 mg/kg, IG measured after 12 hrs by ELISA based assay; assay type: functional, organism-based
[9] = system: RAW264.7; assay: Antiproliferative activity against mouse RAW264.7 cells at 2.5 to 40 uM; assay type: toxicity, cell-based; conditions: raw264.7, 40 µM, dose 2.5-40 µM
[10] = system: RAW264.7; assay: Immunosuppressive activity in mouse RAW264.7 cells assessed as reduction in expression of ERK phosphorylation at 10 to 40 uM by Western blot analysis; assay type: functional, cell-based; conditions: dose 10-40 µM
[11] = system: Mus musculus; assay: Reduction in TNF-alpha level in LPS-induced sepsis mouse model peripheral blood at 25 mg/kg, IG measured after 12 hrs by ELISA based assay; assay type: functional, organism-based
[12] = system: RAW264.7; assay: Inhibition of cytokine secretion in mouse RAW264.7 cells assessed as suppression of LPS-induced TNF-alpha at 40 uM secretion measured after 48 hrs by ELISA based assay; assay type: functional, cell-based
[13] = system: T-cell; assay: Immunosuppressive activity in C57BL/6 female mouse T-cells isolated from spleen assessed as inhibition of LPS-induced IFN-gamma secretion treated for 48 hrs by ELISA based assay; assay type: functional; conditions: C57BL/6, T-cell
[14] = system: T-cell; assay: Blocked of cell cycle progression in anti-CD3/CD28 stimulated C57BL/6 female mouse T-cells isolated from spleen assessed as increase in cells at G2/M phase measured after 48 hrs by flow cytometry assay; assay type: functional, cell-based; conditions: dose 5-20 µM
[15] = system: RAW264.7; assay: Immunosuppressive activity in mouse RAW264.7 cells assessed as reduction in expression of JNK phosphorylation at 10 to 40 uM by Western blot analysis; assay type: functional, cell-based; conditions: dose 10-40 µM
[16] = system: RAW264.7; assay: Inhibition of cytokine secretion in mouse RAW264.7 cells assessed as suppression of LPS-induced IL-6 secretion measured after 48 hrs by ELISA based assay; assay type: functional, cell-based; conditions: dose 2.5-40 µM
[17] = system: RAW264.7; assay: Inhibition of cytokine secretion in mouse RAW264.7 cells assessed as suppression of LPS-induced TNF-alpha secretion measured after 48 hrs by ELISA based assay; assay type: functional, cell-based; conditions: dose 2.5-40 µM
[18] = system: T-cell; assay: Blocked of cell cycle progression in anti-CD3/CD28 stimulated C57BL/6 female mouse T-cells isolated from spleen assessed as increase in cells at G0/G1 phase at 5 to 20 uM measured after 48 hrs by flow cytometry assay; assay type: functional, cell-based; conditions: dose 5-20 µM
[19] = system: T-cell; assay: Blocked of cell cycle progression in anti-CD3/CD28 stimulated C57BL/6 female mouse T-cells isolated from spleen assessed as decrease in cells at S phase measured after 48 hrs by flow cytometry assay; assay type: functional, cell-based; conditions: dose 5-20 µM
[20] = system: T-cell; assay: Inhibition of proliferation of C57BL/6 female mouse T-cells isolated from spleen; assay type: functional, cell-based; conditions: C57BL/6, T-cell
[21] = system: T-cell; assay: Immunosuppressive activity in C57BL/6 female mouse T-cells isolated from spleen assessed as inhibition of LPS-induced IFN-gamma secretion at 1 uM treated for 48 hrs by ELISA based assay relative to control; assay type: functional; conditions: C57BL/6, T-cell
[22] = system: T-cell; assay: Inhibition of proliferation of C57BL/6 female mouse T-cells isolated from spleen at 1 uM relative to control; assay type: functional; conditions: C57BL/6, T-cell

Structure (SMILES): CC(C)=CC(=O)[C@@]1(O)[C@@H](C)[C@@H]2CC[C@H](C)[C@H]2C(=O)[C@]1(O)[C@H](C)CC[C@@H]1OC(=O)C=C1C
- Activity [1]: Active
- Activity [2]: Active
- inhibition at 20 µM [3]: 54.3%
- inhibition [4]: Active
- Activity [5]: Active
- Activity [6]: Dose-Dependent Effect
- inhibition at 20 µM [7]: 14.7%
- Activity [8]: Active
- Activity [9]: Non-Toxic
- Activity [10]: Active
- Activity [11]: Active
- inhibition [12]: Active
- IC50 [13]: 9.94 µM

Structure (SMILES): CC(C)=C[C@H]1O[C@@](C)(CCc2occc2C)C2=C1[C@@H](C)[C@@H]1CC[C@H](C)[C@]1(O)C2=O
- Activity [2]: Active
- inhibition at 20 µM [3]: 73.7%
- Activity [14]: Dose-Dependent Effect
- Activity [5]: Active
- Activity [15]: Active
- inhibition [16]: Dose-Dependent Effect
- inhibition at 20 µM [7]: 39.8%
- inhibition [17]: Dose-Dependent Effect
- Activity [9]: Non-Toxic
- Activity [10]: Active
- Activity [18]: Active
- Activity [19]: Dose-Dependent Effect
- IC50 [20]: 32.5 µM
- IC50 [13]: 4.94 µM

Structure (SMILES): C/C=C/C[C@@H](C)[C@@H](O)[C@H]1C(=O)N[C@@H](CC)C(=O)N(C)CC(=O)N(C)[C@@H](CC(C)C)C(=O)N[C@@H](C(C)C)C(=O)N(C)[C@@H](CC(C)C)C(=O)N[C@@H](C)C(=O)N[C@H](C)C(=O)N(C)[C@@H](CC(C)C)C(=O)N(C)[C@@H](CC(C)C)C(=O)N(C)[C@@H](C(C)C)C(=O)N1C [CYCLOSPORINE]
- inhibition at 1 µM [21]: 99.2%
- inhibition at 1 µM [22]: 36.7%

Source: ChEMBL document CHEMBL5532671, “Leucosceptrane Sesterterpenoids as a New Type of Natural Immunosuppressive Agents in Treating Sepsis” (J Med Chem, 2024)
